Experimental findings from article PMC8213057, “Targeting ALK2: An Open Science Approach to Developing Therapeutics for the Treatment of Diffuse Intrinsic Pontine Glioma” (Journal of Medicinal Chemistry, 2020) are described below.

For one assay, the target named is T1, HIPK4 (Homo sapiens, UniProt Q8NE63).
T1 sequence (Q8NE63 1-616): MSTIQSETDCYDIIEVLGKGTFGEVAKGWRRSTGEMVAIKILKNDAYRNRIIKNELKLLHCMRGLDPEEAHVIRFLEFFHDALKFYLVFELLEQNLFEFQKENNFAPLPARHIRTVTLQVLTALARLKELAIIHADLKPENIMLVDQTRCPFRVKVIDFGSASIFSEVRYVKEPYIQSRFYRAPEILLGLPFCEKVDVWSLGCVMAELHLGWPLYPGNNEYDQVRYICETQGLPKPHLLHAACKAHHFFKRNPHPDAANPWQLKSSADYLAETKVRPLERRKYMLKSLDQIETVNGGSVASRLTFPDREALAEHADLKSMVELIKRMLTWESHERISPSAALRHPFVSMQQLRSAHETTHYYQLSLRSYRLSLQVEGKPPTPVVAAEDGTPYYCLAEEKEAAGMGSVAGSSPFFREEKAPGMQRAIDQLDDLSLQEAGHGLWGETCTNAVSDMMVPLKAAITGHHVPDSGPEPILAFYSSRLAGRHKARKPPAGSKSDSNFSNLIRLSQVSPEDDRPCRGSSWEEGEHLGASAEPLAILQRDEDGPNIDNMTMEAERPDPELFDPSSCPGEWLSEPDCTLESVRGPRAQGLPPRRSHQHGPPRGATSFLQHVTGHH
Particulars: 1 μM; Run 1, Run 2.

In the next assay the target is MAPKAPK3 (Homo sapiens, UniProt Q16644). The following applies: 1 μM; Run 1, Run 2.
Sequence of MAPKAPK3 (Q16644 whole entry): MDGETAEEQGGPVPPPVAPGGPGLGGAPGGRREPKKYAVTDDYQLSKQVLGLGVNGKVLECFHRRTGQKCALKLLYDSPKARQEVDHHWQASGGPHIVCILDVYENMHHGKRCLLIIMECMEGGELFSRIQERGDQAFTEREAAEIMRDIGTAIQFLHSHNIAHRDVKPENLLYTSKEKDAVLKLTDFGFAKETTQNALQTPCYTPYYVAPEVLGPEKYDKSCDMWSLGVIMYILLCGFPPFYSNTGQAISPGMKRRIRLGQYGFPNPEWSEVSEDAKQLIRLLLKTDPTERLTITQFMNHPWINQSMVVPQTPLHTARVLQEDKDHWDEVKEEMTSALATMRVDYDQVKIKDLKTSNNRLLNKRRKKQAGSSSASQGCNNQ
The target of a further assay is T2, EPHA8 (Homo sapiens, UniProt P29322).
T2 sequence (P29322 28-1005): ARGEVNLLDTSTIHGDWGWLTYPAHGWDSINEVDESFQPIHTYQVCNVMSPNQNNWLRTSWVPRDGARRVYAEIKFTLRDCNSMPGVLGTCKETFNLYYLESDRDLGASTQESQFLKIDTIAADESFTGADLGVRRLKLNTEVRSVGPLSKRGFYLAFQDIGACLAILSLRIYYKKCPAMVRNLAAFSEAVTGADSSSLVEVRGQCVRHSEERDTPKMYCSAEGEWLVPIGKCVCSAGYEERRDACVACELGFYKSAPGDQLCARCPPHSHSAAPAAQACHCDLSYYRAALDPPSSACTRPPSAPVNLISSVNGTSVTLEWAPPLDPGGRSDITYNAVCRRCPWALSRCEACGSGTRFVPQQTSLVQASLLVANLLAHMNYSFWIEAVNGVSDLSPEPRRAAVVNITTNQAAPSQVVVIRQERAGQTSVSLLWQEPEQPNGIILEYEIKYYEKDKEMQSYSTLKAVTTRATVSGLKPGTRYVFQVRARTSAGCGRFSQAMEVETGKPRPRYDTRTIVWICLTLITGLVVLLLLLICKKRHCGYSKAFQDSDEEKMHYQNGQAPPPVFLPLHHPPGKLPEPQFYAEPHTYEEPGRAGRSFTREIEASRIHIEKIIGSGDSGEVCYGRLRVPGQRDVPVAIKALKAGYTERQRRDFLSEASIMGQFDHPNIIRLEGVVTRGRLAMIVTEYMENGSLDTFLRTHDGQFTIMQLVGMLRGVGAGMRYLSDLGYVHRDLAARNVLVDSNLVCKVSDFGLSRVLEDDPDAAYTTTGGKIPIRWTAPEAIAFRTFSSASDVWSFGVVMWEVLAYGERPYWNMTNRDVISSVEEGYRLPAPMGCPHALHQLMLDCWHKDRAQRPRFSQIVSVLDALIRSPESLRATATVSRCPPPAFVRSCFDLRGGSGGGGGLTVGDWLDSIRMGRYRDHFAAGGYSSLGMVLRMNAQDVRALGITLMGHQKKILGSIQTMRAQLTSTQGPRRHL
As to the kind of experiment: biochemical. Particulars: read-out: % enzyme activity, 1 μM; Run 1, Run 2.

The target of a further assay is ERK5/MAPK7 (Homo sapiens, UniProt Q13164). The experiment in a line: biochemical. The following applies: read-out: % enzyme activity, 1 μM; Run 1, Run 2.
Sequence of ERK5/MAPK7 (Q13164 whole entry): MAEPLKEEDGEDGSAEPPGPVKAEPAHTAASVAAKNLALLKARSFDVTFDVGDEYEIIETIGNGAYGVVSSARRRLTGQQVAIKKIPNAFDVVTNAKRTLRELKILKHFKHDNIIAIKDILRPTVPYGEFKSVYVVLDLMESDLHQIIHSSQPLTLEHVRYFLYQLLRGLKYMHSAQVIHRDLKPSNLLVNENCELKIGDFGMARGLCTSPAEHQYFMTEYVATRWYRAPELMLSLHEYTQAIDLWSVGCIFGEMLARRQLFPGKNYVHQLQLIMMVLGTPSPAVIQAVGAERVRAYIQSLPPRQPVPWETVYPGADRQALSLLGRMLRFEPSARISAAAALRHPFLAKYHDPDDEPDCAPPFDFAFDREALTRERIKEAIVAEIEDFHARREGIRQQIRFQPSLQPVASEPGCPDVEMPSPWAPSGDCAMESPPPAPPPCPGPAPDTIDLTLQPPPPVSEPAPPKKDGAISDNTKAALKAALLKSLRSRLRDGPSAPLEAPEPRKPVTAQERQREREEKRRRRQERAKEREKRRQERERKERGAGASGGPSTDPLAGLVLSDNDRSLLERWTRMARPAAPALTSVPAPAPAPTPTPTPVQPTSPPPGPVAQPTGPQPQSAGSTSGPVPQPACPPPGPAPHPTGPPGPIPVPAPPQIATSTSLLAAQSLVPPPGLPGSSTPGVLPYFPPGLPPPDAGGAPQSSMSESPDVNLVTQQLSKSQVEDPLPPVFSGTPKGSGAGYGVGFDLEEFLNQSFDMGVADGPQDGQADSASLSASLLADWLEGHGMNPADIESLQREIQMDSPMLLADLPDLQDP
The target in a further assay is IRAK1 (Homo sapiens, UniProt P51617). As to the kind of experiment: biochemical. The following applies: read-out: % enzyme activity, 1 μM; Run 1, Run 2.
Sequence of IRAK1 (P51617 whole entry): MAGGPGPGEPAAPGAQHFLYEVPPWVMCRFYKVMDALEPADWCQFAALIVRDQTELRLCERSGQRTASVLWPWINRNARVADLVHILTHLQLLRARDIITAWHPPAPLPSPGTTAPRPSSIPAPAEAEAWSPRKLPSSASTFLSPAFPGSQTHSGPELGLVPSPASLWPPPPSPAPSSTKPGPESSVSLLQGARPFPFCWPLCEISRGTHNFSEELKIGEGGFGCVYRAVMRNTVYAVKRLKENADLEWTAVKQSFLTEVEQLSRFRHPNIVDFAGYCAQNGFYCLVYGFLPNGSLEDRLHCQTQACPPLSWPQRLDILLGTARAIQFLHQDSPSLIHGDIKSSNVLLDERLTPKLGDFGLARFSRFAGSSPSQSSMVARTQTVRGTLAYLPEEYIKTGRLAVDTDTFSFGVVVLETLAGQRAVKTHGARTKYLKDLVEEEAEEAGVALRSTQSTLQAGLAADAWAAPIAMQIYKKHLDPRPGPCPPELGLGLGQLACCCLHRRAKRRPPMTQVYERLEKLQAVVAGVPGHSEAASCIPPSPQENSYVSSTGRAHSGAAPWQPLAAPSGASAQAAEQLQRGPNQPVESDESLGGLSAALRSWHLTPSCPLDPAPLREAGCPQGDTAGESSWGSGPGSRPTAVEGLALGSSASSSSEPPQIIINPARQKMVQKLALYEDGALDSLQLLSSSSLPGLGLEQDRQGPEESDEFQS
The target of the next assay is MLK4 (Homo sapiens, UniProt Q5TCX8). The experiment in a line: biochemical. The following applies: read-out: % enzyme activity, 1 μM; Run 1, Run 2.
Sequence of MLK4 (Q5TCX8 whole entry): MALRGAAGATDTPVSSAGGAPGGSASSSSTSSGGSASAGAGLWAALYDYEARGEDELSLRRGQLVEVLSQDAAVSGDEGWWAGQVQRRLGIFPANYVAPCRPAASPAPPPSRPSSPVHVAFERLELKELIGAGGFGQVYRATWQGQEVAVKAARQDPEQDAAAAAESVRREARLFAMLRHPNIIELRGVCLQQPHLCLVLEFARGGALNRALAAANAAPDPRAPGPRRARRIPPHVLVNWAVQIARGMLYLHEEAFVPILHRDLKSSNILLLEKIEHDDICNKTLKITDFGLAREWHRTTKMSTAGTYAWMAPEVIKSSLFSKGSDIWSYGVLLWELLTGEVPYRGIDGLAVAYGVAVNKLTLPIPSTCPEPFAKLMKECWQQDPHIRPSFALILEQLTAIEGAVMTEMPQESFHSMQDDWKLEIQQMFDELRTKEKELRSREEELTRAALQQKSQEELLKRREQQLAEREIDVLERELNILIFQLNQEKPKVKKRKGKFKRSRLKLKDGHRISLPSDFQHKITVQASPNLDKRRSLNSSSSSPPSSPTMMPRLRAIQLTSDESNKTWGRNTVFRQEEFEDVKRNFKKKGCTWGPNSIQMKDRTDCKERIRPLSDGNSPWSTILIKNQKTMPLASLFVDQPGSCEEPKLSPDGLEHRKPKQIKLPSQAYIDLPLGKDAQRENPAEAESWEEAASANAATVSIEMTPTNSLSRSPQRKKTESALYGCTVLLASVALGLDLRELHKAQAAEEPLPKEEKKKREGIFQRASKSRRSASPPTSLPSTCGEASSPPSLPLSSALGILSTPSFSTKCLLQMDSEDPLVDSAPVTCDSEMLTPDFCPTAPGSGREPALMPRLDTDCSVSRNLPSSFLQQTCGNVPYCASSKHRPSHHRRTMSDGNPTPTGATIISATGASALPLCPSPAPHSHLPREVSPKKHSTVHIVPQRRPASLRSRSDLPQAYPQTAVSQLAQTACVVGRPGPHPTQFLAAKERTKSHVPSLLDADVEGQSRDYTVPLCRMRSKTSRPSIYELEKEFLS
Another assay concerns the target T3, PKD2/PRKD2 (Homo sapiens, UniProt Q9BZL6).
T3 sequence (Q9BZL6 1-878): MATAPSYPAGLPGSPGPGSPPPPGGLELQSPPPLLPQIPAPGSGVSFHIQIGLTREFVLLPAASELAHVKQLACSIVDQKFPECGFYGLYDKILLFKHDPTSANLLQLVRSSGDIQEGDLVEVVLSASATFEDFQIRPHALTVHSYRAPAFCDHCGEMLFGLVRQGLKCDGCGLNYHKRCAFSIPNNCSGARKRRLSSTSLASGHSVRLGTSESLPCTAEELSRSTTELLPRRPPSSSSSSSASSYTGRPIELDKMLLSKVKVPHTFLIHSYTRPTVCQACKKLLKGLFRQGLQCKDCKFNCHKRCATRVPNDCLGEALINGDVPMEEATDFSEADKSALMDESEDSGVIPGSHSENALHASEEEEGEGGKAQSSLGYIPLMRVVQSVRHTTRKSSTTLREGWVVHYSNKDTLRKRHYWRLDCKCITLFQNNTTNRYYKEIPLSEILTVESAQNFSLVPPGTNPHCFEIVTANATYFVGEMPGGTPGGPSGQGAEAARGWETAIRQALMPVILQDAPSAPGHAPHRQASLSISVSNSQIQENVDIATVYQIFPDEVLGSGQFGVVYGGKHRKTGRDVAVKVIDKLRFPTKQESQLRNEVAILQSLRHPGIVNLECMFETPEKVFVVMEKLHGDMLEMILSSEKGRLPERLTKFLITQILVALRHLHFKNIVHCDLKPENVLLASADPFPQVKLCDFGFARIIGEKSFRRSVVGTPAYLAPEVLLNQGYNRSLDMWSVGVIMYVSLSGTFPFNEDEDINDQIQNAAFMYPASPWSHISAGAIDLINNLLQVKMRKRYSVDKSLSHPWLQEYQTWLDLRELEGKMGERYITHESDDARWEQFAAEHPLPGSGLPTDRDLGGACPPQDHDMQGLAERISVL
As to the kind of experiment: biochemical. Particulars: read-out: % enzyme activity, 1 μM; Run 1, Run 2.

For the compound `COc1cc(-c2cncc(-c3ccc(N4CCN(C)CC4)cc3)c2C)cc(F)c1C(N)=O` [Compound 26a, 2-Fluoro-6-methoxy-4-(4-methyl-5-(4-(4-methylpiperazin-1-yl)phenyl)pyridin-3-yl)benzamide], the “% enzyme activity” value at HIPK4 came to 102.90%; on MAPKAPK3 it was 99.20%. In addition, the remaining activity at 1 µM turned out to be 95.3% on EPHA8; 96.5% on ERK5/MAPK7; 103% at IRAK1; 95.3% at MLK4; 96.1% at PKD2/PRKD2.

With `COc1cc(-c2cncc(-c3ccc(N4C[C@@H](C)N(C)[C@@H](C)C4)cc3)c2C)cc(F)c1C(N)=O` [Compound 26c, 2-Fluoro-6-methoxy-4-(4-methyl-5-(4-((3R,5S)-3,4,5-trimethylpiperazin-1-yl)phenyl)pyridin-3-yl)benzamide], the “% enzyme activity” value was 97.53% at HIPK4 and 96.39% on MAPKAPK3. In addition, the remaining activity at 1 µM on EPHA8 was determined as 97.5%; on ERK5/MAPK7, 101%; at IRAK1, 98.9%; at MLK4, 96.2%; on PKD2/PRKD2, 99.2%.
